Experimental data: patent publication US20170298055A1, “sGC STIMULATORS” (IRONWOOD PHARMACEUTICALS, INC., priority 2014, published 2017)

Target: T1, human recombinant soluble guanylate cyclase enzyme α1β1 (Homo sapiens, UniProt Q02108+Q02153)
T1 construct: purchased Enzo Life Sciences ALX-201-177
T1 sequence (Q02153 1-619): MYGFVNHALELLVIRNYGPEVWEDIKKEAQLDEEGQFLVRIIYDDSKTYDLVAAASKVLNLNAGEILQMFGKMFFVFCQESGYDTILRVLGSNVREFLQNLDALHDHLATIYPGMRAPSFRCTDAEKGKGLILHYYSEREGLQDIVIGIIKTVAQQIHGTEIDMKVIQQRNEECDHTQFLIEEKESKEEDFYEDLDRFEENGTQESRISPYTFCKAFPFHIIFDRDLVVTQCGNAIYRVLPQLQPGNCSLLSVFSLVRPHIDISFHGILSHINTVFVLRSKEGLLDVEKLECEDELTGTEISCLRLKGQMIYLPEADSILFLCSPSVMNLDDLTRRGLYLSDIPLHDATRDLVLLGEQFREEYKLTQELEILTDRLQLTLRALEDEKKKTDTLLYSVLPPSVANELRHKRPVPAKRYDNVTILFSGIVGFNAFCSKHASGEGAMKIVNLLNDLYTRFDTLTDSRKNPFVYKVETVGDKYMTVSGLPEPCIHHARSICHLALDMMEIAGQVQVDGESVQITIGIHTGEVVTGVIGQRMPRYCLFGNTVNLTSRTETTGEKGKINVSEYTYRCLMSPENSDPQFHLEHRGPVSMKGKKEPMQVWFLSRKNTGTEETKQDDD
T1 sequence (Q02108 1-690): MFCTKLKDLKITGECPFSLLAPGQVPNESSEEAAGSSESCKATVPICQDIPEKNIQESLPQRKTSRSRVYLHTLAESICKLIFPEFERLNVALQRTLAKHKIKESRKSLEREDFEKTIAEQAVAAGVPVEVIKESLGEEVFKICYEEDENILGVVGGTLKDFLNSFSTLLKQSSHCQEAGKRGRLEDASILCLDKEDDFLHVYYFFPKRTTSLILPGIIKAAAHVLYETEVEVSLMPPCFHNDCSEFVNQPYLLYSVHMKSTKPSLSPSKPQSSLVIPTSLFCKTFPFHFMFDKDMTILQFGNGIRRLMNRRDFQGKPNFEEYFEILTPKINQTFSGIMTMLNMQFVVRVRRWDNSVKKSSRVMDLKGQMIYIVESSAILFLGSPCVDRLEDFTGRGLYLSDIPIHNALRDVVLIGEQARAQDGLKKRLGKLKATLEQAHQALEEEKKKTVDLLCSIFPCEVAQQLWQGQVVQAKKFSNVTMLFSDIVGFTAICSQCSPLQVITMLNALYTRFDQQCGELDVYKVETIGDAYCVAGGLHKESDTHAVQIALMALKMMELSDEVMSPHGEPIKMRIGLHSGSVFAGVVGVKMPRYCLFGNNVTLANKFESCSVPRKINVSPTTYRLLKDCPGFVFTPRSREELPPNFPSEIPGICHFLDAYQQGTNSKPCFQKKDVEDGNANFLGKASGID
Assay: Purified human recombinant sGC α1β1 enzyme assay with DETA-NONOate, cGMP HTRF (Example 5)
Format: biochemical
Conditions: 30 uM DETA NONOate, 50% of maximal response of 30 uM Compound Y, read-out: sGC_Enz_HTRF_a1b1 EC50/IC50 Abs (Norm) (nM) Binned
Protocol: Purified human recombinant soluble guanylate cyclase enzyme α1β1 (h sGC) obtained from Enzo Life Sciences (P/N: ALX-201-177) was used to evaluate the activity of test compounds. The assay reactions contained 0.1 M Tris (pH 8.0), 0.5 mg/mL BSA, 2 mM DTT, 4 mM MgCl2, 30 uM DETA NONOate (Enzo Life Science P/N: ALX-430-014), and 12.5 ng/ml human soluble guanylate cyclase enzyme. […] Guanosine 5′-triphosphate (Sigma-Aldrich P/N: G8877) was added to a final concentration of 300 μM and enzyme reactions were incubated (100 μL, 384-well plate format) at 37° C. for 20 minutes. The controls contained 3% DMSO (low control), or 30 uM of Compound Y (high control). After the 20 minute incubation, the reaction was stopped with the addition of 100 μL of ice cold 20% acetic acid.
cGMP concentrations in all samples were determined using the cGMP HTRF (Cisbio P/N: 62GM2PEC) assay per manufacturer's instructions. A cGMP standard curve was fit using a 4-parameter fit (log(inhibitor) vs. response variable slope) using GraphPad Prism Software v.6. Samples were diluted appropriately to ensure that values fell within the linear range of the standard curve.
Data were fit using a 4-parameter fit (log(agonist) vs. response variable slope) using GraphPad Prism Software v.6.

| EC50 | SMILES |
| --- | --- |
| 1000 to 5000 nM | CN(C)CCOc1nc(-c2cc(-c3ccon3)n(Cc3ccccc3F)n2)ncc1F [Compound I-2] |
| 1000 to 5000 nM | OCCOc1nc(-c2cc(-c3ccon3)n(Cc3ccccc3F)n2)ncc1F [Compound I-1] |
